Data from PubChem BioAssay AID248 (DTP/NCI, 2004).
Inconclusive results and toxic doses are left out. Cut-off read from the data, not from the text of the source: active = T/C of 150% or more; inactive = T/C below 125%. Square brackets hold non-standard residues; d marks the D form. Peptide text beside a SMILES is read from it. ξ: configuration not given here. ξE = NC(CCC(=O)O)C(=O)O

System: L1210 leukemia ip in BDF1 mice, survival T/C
Test: NCI In Vivo Anticancer Drug Screen. Data for tumor model L1210 Leukemia (intraperitoneal) in B6D2F1 (BDF1) mice
Conditions: endpoint: mean survival time, higher = longer survival
Outline: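 Each compound was tested against a transplantable tumor grown in mice. The endpoint was survival, with treated animals benchmarked against vehicle controls as a simple ratio.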

[1] = dose: 100.0 mg/kg/injection, schedule: Q01DX009 (ip), vehicle: Klucel (hydroxypropylcellulose) (HPC)
[2] = dose: 200.0 mg/kg/injection, schedule: Q01DX009 (ip), vehicle: Klucel (hydroxypropylcellulose) (HPC)
[3] = dose: 50.0 mg/kg/injection, schedule: Q01DX001 (ip), vehicle: carboxymethylcellulose (CMC)
[4] = dose: 100.0 mg/kg/injection, schedule: Q01DX001 (ip), vehicle: carboxymethylcellulose (CMC)
[5] = dose: 200.0 mg/kg/injection, schedule: Q01DX001 (ip), vehicle: carboxymethylcellulose (CMC)
[6] = dose: 100.0 mg/kg/injection, schedule: Q01DX001 (ip), vehicle: saline
[7] = dose: 50.0 mg/kg/injection, schedule: Q01DX001 (ip), vehicle: saline
[8] = dose: 100.0 mg/kg/injection, schedule: Q04DX003 (ip), vehicle: saline
[9] = dose: 200.0 mg/kg/injection, schedule: Q04DX003 (ip), vehicle: saline
[10] = dose: 400.0 mg/kg/injection, schedule: Q04DX003 (ip), vehicle: saline
[11] = dose: 12.5 mg/kg/injection, schedule: Q01DX009 (ip), vehicle: saline with Tween-80
[12] = dose: 25.0 mg/kg/injection, schedule: Q01DX009 (ip), vehicle: saline with Tween-80
[13] = dose: 50.0 mg/kg/injection, schedule: Q01DX009 (ip), vehicle: saline with Tween-80
[14] = dose: 100.0 mg/kg/injection, schedule: Q01DX009 (ip), vehicle: saline with Tween-80
[15] = dose: 100.0 mg/kg/injection, schedule: Q04DX003 (ip), vehicle: saline with Tween-80
[16] = dose: 200.0 mg/kg/injection, schedule: Q01DX009 (ip), vehicle: saline with Tween-80
[17] = dose: 200.0 mg/kg/injection, schedule: Q04DX003 (ip), vehicle: saline with Tween-80
[18] = dose: 400.0 mg/kg/injection, schedule: Q04DX003 (ip), vehicle: saline with Tween-80
[19] = dose: 400.0 mg/kg/injection, schedule: Q01DX001 (ip), vehicle: carboxymethylcellulose (CMC)
[20] = dose: 100.0 mg/kg/injection, schedule: Q04DX003 (ip), vehicle: Klucel (hydroxypropylcellulose) (HPC)
[21] = dose: 200.0 mg/kg/injection, schedule: Q04DX003 (ip), vehicle: Klucel (hydroxypropylcellulose) (HPC)
[22] = dose: 400.0 mg/kg/injection, schedule: Q04DX003 (ip), vehicle: Klucel (hydroxypropylcellulose) (HPC)
[23] = dose: 400.0 mg/kg/injection, schedule: Q01DX009 (ip), vehicle: saline with Tween-80

Measured: T/C

CCCCCCC(CCCCCC)c1ccccc1
inactive: dose: 100.0 mg/kg/injection, schedule: Q01DX001 (ip), vehicle: saline with Tween-80 90 % of control | dose: 200.0 mg/kg/injection, schedule: Q01DX001 (ip), vehicle: saline with Tween-80 93 % of control

COc1ccc(/C=N/NC(=O)CNC(=O)NCc2ccccc2)cc1
inactive: [1] 90 % of control | [2] 93 % of control

O=C1c2ccccc2C(=O)N1O
inactive: [3] 95 % of control | [4] 90 % of control | [5] 95 % of control

COC(=O)C1(N(C)C)c2ccccc2-c2ccccc21
inactive: [4] 105 % of control

CCC1=CC2CC3(C(=O)OC)c4[nH]c5ccccc5c4CC[N+](Cc4ccccc4)(C2)C13 (stereo not given)
inactive: [6] 100 % of control

O=C(CCl)c1ccc(Oc2ccc(C(=O)CCl)cc2)cc1
inactive: [7] 100 % of control | [6] 97 % of control | dose: 200.0 mg/kg/injection, schedule: Q01DX001 (ip), vehicle: saline 97 % of control | dose: 400.0 mg/kg/injection, schedule: Q01DX001 (ip), vehicle: saline 105 % of control

COc1ccc2c3c1OC1C(C)(O)C(O)CC4C(C2)N(C)CCC341 (stereo not given)
inactive: dose: 75.0 mg/kg/injection, schedule: Q01DX001 (ip), vehicle: saline 98 % of control | dose: 150.0 mg/kg/injection, schedule: Q01DX001 (ip), vehicle: saline 104 % of control | dose: 300.0 mg/kg/injection, schedule: Q01DX001 (ip), vehicle: saline 98 % of control

CCOC(=O)/C(C#N)=C\c1cc(=O)c(OC)co1
inactive: [8] 98 % of control | [9] 104 % of control | [10] 102 % of control

CC(=O)OCC1OC(OC2C(COC(C)=O)OC(Sc3ccccc3)C(OC(C)=O)C2OC(C)=O)C(OC(C)=O)C(OC(C)=O)C1OC(C)=O (stereo not given)
inactive: dose: 3.13 mg/kg/injection, schedule: Q01DX009 (ip), vehicle: saline with Tween-80 89 % of control | [11] 89 % of control | [12] 90 % of control | dose: 25.0 mg/kg/injection, schedule: Q04DX003 (ip), vehicle: saline with Tween-80 95 % of control | [13] 90 % of control | dose: 50.0 mg/kg/injection, schedule: Q04DX003 (ip), vehicle: saline with Tween-80 95 % of control | [14] 88 % of control | [15] 92 % of control | [16] 94 % of control | [17] 91 % of control | [18] 87 % of control

NC(CSS(=O)(=O)O)=NC1CCCC1
inactive: dose: 12.5 mg/kg/injection, schedule: Q01DX001 (ip), vehicle: carboxymethylcellulose (CMC) 107 % of control | dose: 25.0 mg/kg/injection, schedule: Q01DX001 (ip), vehicle: carboxymethylcellulose (CMC) 101 % of control | [3] 102 % of control

CC(C)C(=O)NC(Cc1ccccc1)C(=O)N(Cc1ccccc1)N=O (stereo not given)
inactive: dose: 32.0 mg/kg/injection, schedule: Q04DX002 (ip), vehicle: Klucel (hydroxypropylcellulose) (HPC) 94 % of control | dose: 63.0 mg/kg/injection, schedule: Q04DX002 (ip), vehicle: Klucel (hydroxypropylcellulose) (HPC) 97 % of control | dose: 125.0 mg/kg/injection, schedule: Q04DX002 (ip), vehicle: Klucel (hydroxypropylcellulose) (HPC) 94 % of control

O=C(Nc1ccc(Br)cc1)Nc1cccc(Cl)c1
inactive: dose: 100.0 mg/kg/injection, schedule: Q04DX002 (ip), vehicle: saline 103 % of control | dose: 200.0 mg/kg/injection, schedule: Q04DX002 (ip), vehicle: saline 103 % of control | dose: 400.0 mg/kg/injection, schedule: Q04DX002 (ip), vehicle: saline 96 % of control

CCCCCCCC(C(=O)OCC)C(=O)OCC
inactive: [4] 103 % of control | [5] 100 % of control | [19] 100 % of control

ClC(=Nc1ccccc1)c1cc(Cl)ccn1
inactive: [4] 92 % of control | [5] 94 % of control | [19] 100 % of control

O=C(O)c1ccccc1N=Cc1ccccc1O.[Co]
inactive: dose: 100.0 mg/kg/injection, schedule: Q01DX001 (ip), vehicle: other 102 % of control | dose: 200.0 mg/kg/injection, schedule: Q01DX001 (ip), vehicle: other 112 % of control

Cc1nccnc1SC1CCCCC1
inactive: [20] 96 % of control | [21] 96 % of control | [22] 93 % of control

COC(=O)CNC(=O)C(Cc1ccc(OCc2ccccc2)cc1)NC=O (stereo not given)
inactive: [14] 89 % of control | [15] 105 % of control | [16] 90 % of control | [17] 100 % of control | [23] 90 % of control | [18] 102 % of control

NC(CCC(=O)O)C(=O)NCC(=O)O (stereo not given) (H-[ξE]-Gly-OH)
inactive: dose: 12.5 mg/kg/injection, schedule: Q04DX002 (ip), vehicle: saline 96 % of control | dose: 25.0 mg/kg/injection, schedule: Q04DX002 (ip), vehicle: saline 102 % of control | dose: 50.0 mg/kg/injection, schedule: Q04DX002 (ip), vehicle: saline 90 % of control

OC1CCCC/C1=C/c1ccccc1 (stereo not given)
inactive: [1] 101 % of control | [20] 103 % of control | [2] 101 % of control | [21] 101 % of control | dose: 400.0 mg/kg/injection, schedule: Q01DX009 (ip), vehicle: Klucel (hydroxypropylcellulose) (HPC) 101 % of control | [22] 95 % of control

O=N[O-].O=N[O-].[Co].[NH-]CC[N-]CC[N-]CC[NH-]
inactive: [7] 104 % of control

CCOc1cc(F)cc([N+](=O)[O-])c1
inactive: [4] 97 % of control | [5] 108 % of control | [19] 89 % of control

CC1CCC2(NC1)OC1CC3C4CCC5CC(OC6OC(CO)C(OC7OC(CO)C(O)C(OC8OCC(O)C(O)C8O)C7OC7OC(CO)C(O)C(O)C7O)C(O)C6O)CCC5(C)C4CCC3(C)C1C2C (stereo not given)
inactive: [11] 93 % of control | [12] 90 % of control | [13] 94 % of control | dose: 100.0 mg/kg/injection, schedule: Q01DX001 (sc), vehicle: steriod suspending solution 95 % of control | dose: 200.0 mg/kg/injection, schedule: Q01DX001 (sc), vehicle: steriod suspending solution 103 % of control | dose: 400.0 mg/kg/injection, schedule: Q01DX001 (sc), vehicle: steriod suspending solution 97 % of control

CCOC(=O)NCCCNC(=O)OCC
inactive: [8] 95 % of control | [9] 103 % of control | [10] 97 % of control

Cc1n(-c2ccccc2)c2c([n+]1Cc1ccc([N+](=O)[O-])cc1)C(=O)c1ccccc1C2=O
inactive: dose: 5.0 mg/kg/injection, schedule: Q01DX001 (ip), vehicle: other 106 % of control | dose: 10.0 mg/kg/injection, schedule: Q01DX001 (ip), vehicle: other 101 % of control | dose: 20.0 mg/kg/injection, schedule: Q01DX001 (ip), vehicle: other 93 % of control | dose: 40.0 mg/kg/injection, schedule: Q01DX001 (ip), vehicle: other 95 % of control

CC1=CC(=O)CC(C)(C)C1
inactive: [14] 101 % of control | [16] 101 % of control | [23] 90 % of control
